The results in this text go back to patent publication US8901313B2, “6,5-heterocyclic propargylic alcohol compounds and uses therefor” (Genentech, Inc., priority 2011, dated 2014).

pKi: −log10 of the molar value.

The target in the test is T1, nuclear factor-kappa B (NF-kB)-inducing kinase (NIK) (Homo sapiens, UniProt Q99558).
T1 construct: made in house; host or cells: baculovirus-infected insect cells
T1 sequence (Q99558 whole entry): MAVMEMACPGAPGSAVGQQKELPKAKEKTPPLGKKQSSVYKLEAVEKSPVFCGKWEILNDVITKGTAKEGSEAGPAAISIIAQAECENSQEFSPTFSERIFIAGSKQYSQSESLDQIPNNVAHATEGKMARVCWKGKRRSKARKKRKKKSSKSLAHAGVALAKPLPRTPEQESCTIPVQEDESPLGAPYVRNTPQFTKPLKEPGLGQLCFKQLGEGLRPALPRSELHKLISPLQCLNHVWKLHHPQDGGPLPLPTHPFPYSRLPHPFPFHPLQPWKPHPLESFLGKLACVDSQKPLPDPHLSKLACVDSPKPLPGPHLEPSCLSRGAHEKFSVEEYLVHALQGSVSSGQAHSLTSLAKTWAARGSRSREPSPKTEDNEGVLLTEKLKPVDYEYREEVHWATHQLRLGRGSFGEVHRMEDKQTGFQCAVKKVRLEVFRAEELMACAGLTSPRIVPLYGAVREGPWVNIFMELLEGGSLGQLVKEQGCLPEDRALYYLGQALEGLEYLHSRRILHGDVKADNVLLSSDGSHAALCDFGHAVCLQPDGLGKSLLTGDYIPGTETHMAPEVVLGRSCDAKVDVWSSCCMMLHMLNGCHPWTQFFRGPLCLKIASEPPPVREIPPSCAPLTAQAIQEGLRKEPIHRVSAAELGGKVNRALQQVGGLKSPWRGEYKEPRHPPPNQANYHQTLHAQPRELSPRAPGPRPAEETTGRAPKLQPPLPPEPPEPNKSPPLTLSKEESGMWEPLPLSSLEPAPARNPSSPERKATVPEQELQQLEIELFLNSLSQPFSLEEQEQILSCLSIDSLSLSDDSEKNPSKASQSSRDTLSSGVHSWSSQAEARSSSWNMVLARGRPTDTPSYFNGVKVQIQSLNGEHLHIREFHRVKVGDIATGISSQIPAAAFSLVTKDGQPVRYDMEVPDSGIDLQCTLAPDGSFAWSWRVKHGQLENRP
Nature of the test: NIK Enzyme Inhibition Assay (Transcreener ADP assay). Conditions: purified NIK 0.2-1 nM, 10 uM ATP, fluorescence polarization, Morrison's quadratic equation; read-out: inhibitory value (Ki) for NIK. It counts as biochemical. For orientation: Polarisation of emitted light reports the rotation of a fluorescent probe.
Usually pKi stands for −log10 of the Ki, conventionally taken in molar units. With `Cc1nc2ccc(C#CC(O)C3CC(O)C3)cc2n1-c1ncnc(N)n1` (centres unmarked) [Example T1.1-109, 3-[3-[3-(4-amino-1,3,5-triazin-2-yl)-2-methyl-benzimidazol-5-yl]-1-hydroxy-prop-2-ynyl]cyclobutanol], the pKi was 5.80.

Consider `Cc1nc([C@](C)(O)C#Cc2ccc3c(C(C)(C)O)nn(-c4nc(N)ncc4Cl)c3c2)no1` [Example T1.1-50, (2R)-4-[1-(2-amino-5-chloro-pyrimidin-4-yl)-3-(1-hydroxy-1-methyl-ethyl)indazol-6-yl]-2-(5-methyl-1,2,4-oxadiazol-3-yl) but-3-yn-2-ol], for which the pKi is 8.40.

For `Cc1nc2ccc(C#CC(C)(C)CO)cc2n1-c1ncnc(N)n1` [Example T1.1-118, 4-[3-(4-amino-1,3,5-triazin-2-yl)-2-methyl-benzimidazol-5-yl]-2,2-dimethyl-but-3-yn-1-ol], the negative-log Ki (pKi) was at most 5.30.

As for `C[C@@](O)(C#Cc1ccc2[nH]c(=O)n(-c3ccnc(N)n3)c2c1)c1nccs1` [Example T1-47, (R)-1-(2-aminopyrimidin-4-yl)-6-(3-hydroxy-3-(thiazol-2-yl)but-1-ynyl)-1H-benzo[d] imidazol-2(3H)-one], the pKi is 9.96.

Turning to `Cc1nc2ccc(C#CC3(O)COC3)cc2n1-c1ncnc(N)n1` [Example T1.1-116, 3-[2-[3-(4-amino-1,3,5-triazin-2-yl)-2-methyl-benzimidazol-5-yl]ethynyl] oxetan-3-ol], the pKi was at most 5.30.

For `Cc1cc([C@](C)(O)C#Cc2ccc3c(C(C)(C)O)nn(-c4ccnc(N)n4)c3c2)no1` [Example T1.1-9, (2R)-4-[1-(2-aminopyrimidin-4-yl)-3-(1-hydroxy-1-methyl-ethyl)indazol-6-yl]-2-(5-methyl-isoxazol-3-yl)but-3-yn-2-ol], the pKi was 9.30.

For `CN(C)C(=O)c1nn(-c2ccnc(N)n2)c2cc(C#CC(C)(C)O)ccc12` [Example T1-30, 1-(2-aminopyrimidin-4-yl)-6-(3-hydroxy-3-methylbut-1-ynyl)-N,N-dimethyl-1H-indazole-3-carboxamide], the pKi is 7.22.

Consider `Cc1cc(C(C)(O)C#Cc2ccc3nc(C(=O)N4CCCC4)n(-c4ccnc(N)n4)c3c2)no1` (centres unmarked) [Example T1.1-104, [1-(2-aminopyrimidin-4-yl)-6-[3-hydroxy-3-(5-methylisoxazol-3-yl)but-1-ynyl]benzimidazol-2-yl]-pyrrolidin-1-yl-methanone], for which the pKi was 6.47.

For the molecule `Cc1cnc(C(C)(O)C#Cc2ccc3c(C)nn(-c4ccnc(N)n4)c3c2)cn1` (centres unmarked) [Example T1.1-91, 4-[1-(2-aminopyrimidin-4-yl)-3-methyl-indazol-6-yl]-2-(5-methyl-pyrazin-2-yl)but-3-yn-2-ol], the pKi was 7.16.

In the case of `CC(O)(C#Cc1ccc2c(C(=O)N3CCOCC3)nn(-c3ccnc(N)n3)c2c1)c1ncccn1` (centres unmarked) [Example T1.1-149, [1-(2-aminopyrimidin-4-yl)-6-(3-hydroxy-3-pyrimidin-2-yl-but-1-ynyl)indazol-3-yl]-morpholino-methanone], the pKi is 9.52.

With `CC(O)(C#Cc1ccc2c(CN3CCOCC3)nn(-c3ccnc(N)n3)c2c1)c1ncccn1` (centres unmarked) [Example T1.1-78, 4-[1-(2-aminopyrimidin-4-yl)-3-(morpholinomethyl)indazol-6-yl]-2-pyrimidin-2-yl-but-3-yn-2-ol], the negative logarithm of the Ki (pKi) is 7.70.

With `Cc1cc(C(C)(O)C#Cc2ccc3nc(OCC(O)CO)n(-c4ccnc(N)n4)c3c2)no1` (centres unmarked) [Example T1.1-13, 3-[1-(2-aminopyrimidin-4-yl)-6-[3-hydroxy-3-(5-methylisoxazol-3-yl)but-1-ynyl]benzimidazol-2-yl]oxypropane-1,2-diol], the pKi was 9.22.

As for `CC(O)(C#Cc1ccc2c(C(=O)N3CC4CC3CO4)nn(-c3ccnc(N)n3)c2c1)c1ncccn1` (centres unmarked) [Example T1.1-66, [1-(2-aminopyrimidin-4-yl)-6-(3-hydroxy-3-pyrimidin-2-yl-but-1-ynyl)indazol-3-yl]-(2-oxa-5-azabicyclo[2.2.1]heptan-5-yl)methanone], the pKi was 8.15.

For the molecule `Cc1cc(-n2nc(C)c3ccc(C#C[C@@](C)(O)c4noc(C)n4)cc32)nc(N)n1` [Example T1.1-93, (2R)-4-[1-(2-amino-6-methyl-pyrimidin-4-yl)-3-methyl-indazol-6-yl]-2-(5-methyl-1,2,4-oxadiazol-3-yl)but-3-yn-2-ol], the pKi is 7.11.

As for `Nc1nccc(-n2nc(C(=O)N3CCOCC3)c3ccc(C#CC4(O)CCn5ccnc54)cc32)n1` (centres unmarked) [Example T1.1-41, [1-(2-aminopyrimidin-4-yl)-6-[2-(7-hydroxy-5,6-dihydropyrrolo[1,2-a]imidazol-7-yl)ethynyl]indazol-3-yl]-morpholino-methanone], the pKi is 8.70.

With `Cc1cc([C@](C)(O)C#Cc2ccc3nc(C)n(-c4ncnc(N)n4)c3c2)no1` [Example T1.1-5, (2R)-4-[3-(4-amino-1,3,5-triazin-2-yl)-2-methyl-benzimidazol-5-yl]-2-(5-methylisoxazol-3-yl)but-3-yn-2-ol], the pKi was 9.49.

`Cc1cc(C(C)(O)C#Cc2ccc3nc(OCC(F)(F)F)n(-c4ccnc(N)n4)c3c2)no1` (centres unmarked) [Example T1.1-29, 4-[3-(2-aminopyrimidin-4-yl)-2-(2,2,2-trifluoroethoxy)benzimidazol-5-yl]-2-(5-methylisoxazol-3-yl) but-3-yn-2-ol]: the pKi was 8.70.

Regarding `CN(C)C(=O)c1nn(-c2ccnc(N)n2)c2cc(C#CC3(O)CCn4ccnc43)ccc12` (centres unmarked) [Example T1.1-39, 1-(2-aminopyrimidin-4-yl)-6-[2-(7-hydroxy-5,6-dihydropyrrolo[1,2-a]imidazol-7-yl)ethynyl]-N,N-dimethyl-indazole-3-carboxamide], the pKi is 8.70.

Take `CC(=O)N1CC(Oc2nc3ccc(C#CC(C)(O)c4cc(C)on4)cc3n2-c2ccnc(N)n2)C1` (centres unmarked) [Example T1.1-55, 1-[3-[1-(2-aminopyrimidin-4-yl)-6-[3-hydroxy-3-(5-methylisoxazol-3-yl)but-1-ynyl]benzimidazol-2-yl]oxyazetidin-1-yl]ethanone]: the pKi was 8.40.

For the molecule `Cc1nc2ccc(C#CC3(O)CC4CCC3C4)cc2n1-c1ncnc(N)n1` (centres unmarked) [Example T1.1-110, 2-[2-[3-(4-amino-1,3,5-triazin-2-yl)-2-methyl-benzimidazol-5-yl]ethynyl] norbornan-2-ol], the pKi was 5.77.

Regarding `CC(O)(C#Cc1ccc2c(C(=O)N3CC(C#N)C3)nn(-c3ccnc(N)n3)c2c1)c1ncccn1` (centres unmarked) [Example T1.1-147, 1-[1-(2-aminopyrimidin-4-yl)-6-(3-hydroxy-3-pyrimidin-2-yl-but-1-ynyl)indazole-3-carbonyl]azetidine-3-carbonitrile], the pKi is 8.40.

As to `CNc1ccnc(-n2ncc3ccc(C#CC(C)(O)c4cc(C)on4)cc32)n1` (centres unmarked) [Example T1.1-119, 4-[1-[4-(methylamino)pyrimidin-2-yl]indazol-6-yl]-2-(5-methyl-isoxazol-3-yl)but-3-yn-2-ol], the pKi is at most 5.30.

For the molecule `Cc1cc([C@@](C)(O)C#Cc2ccc3c(C(=O)N4CCOCC4)nn(-c4ccnc(N)n4)c3c2)no1` [Example T1.1-88, [1-(2-aminopyrimidin-4-yl)-6-[(3S)-3-hydroxy-3-(5-methylisoxazol-3-yl)but-1-ynyl]indazol-3-yl]-morpholino-methanone], the pKi was 7.34.

Regarding `CC(O)(C#Cc1ccc2c(C(=O)N3CC4CC4C3)nn(-c3ccnc(N)n3)c2c1)c1ncccn1` (centres unmarked) [Example T1.1-140, [1-(2-aminopyrimidin-4-yl)-6-(3-hydroxy-3-pyrimidin-2-yl-but-1-ynyl)indazol-3-yl]-(3-azabicyclo[3.1.0]hexan-3-yl)methanone], the pKi was 8.28.

`Cc1nc2ccc(C#CC3(O)CCCCC3)cc2n1-c1ncnc(N)n1` [Example T1.1-106, 1-[2-[3-(4-amino-1,3,5-triazin-2-yl)-2-methyl-benzimidazol-5-yl]ethynyl]cyclohexanol]: the pKi is 6.11.

On to `CN(C)C(=O)c1nn(-c2ccnc(N)n2)c2cc(C#CC(C)(O)c3cc(CO)on3)ccc12` (centres unmarked) [Example T1.1-26, 1-(2-aminopyrimidin-4-yl)-6-[3-hydroxy-3-[5-(hydroxymethyl)isoxazol-3-yl]but-1-ynyl]-N,N-dimethyl-indazole-3-carboxamide], for which the pKi is 9.00.

As for `Cc1cc([C@](C)(O)C#Cc2ccc3[nH]c(=O)n(-c4ccnc(N)n4)c3c2)no1` [Example T1.1-1, 3-(2-aminopyrimidin-4-yl)-[(3R)-3-hydroxy-3-(5-methyl-isoxazol-3-yl)but-1-ynyl]-1H-benzimidazol-2-one], the negative logarithm of the Ki (pKi) is 10.00.

`Cc1nc([C@](C)(O)C#Cc2ccc3nc(OCCF)n(-c4ccnc(N)n4)c3c2)no1` [Example T1.1-122, (2R)-4-[3-(2-aminopyrimidin-4-yl)-2-(2-fluoroethoxy)benzimidazol-5-yl]-2-(5-methyl-1,2,4-oxadiazol-3-yl)but-3-yn-2-ol]: the pKi was 9.52.

Turning to `Cc1nn(-c2ccnc(N)n2)c2cc(C#CC(C)(O)c3cocn3)ccc12` (centres unmarked) [Example T1.1-76, 4-[1-(2-aminopyrimidin-4-yl)-3-methyl-indazol-6-yl]-2-oxazol-4-yl-but-3-yn-2-ol], the pKi was 7.80.

For `Cc1nc2ccc(C#CC(C)(O)c3nc(CC#N)cs3)cc2n1-c1ncnc(N)n1` (centres unmarked) [Example T1.1-112, 2-[2-[3-[3-(4-amino-1,3,5-triazin-2-yl)-2-methyl-benzimidazol-5-yl]-1-hydroxy-1-methyl-prop-2-ynyl]thiazol-4-yl] acetonitrile], the pKi is 5.74.

As for `Cc1nn(-c2ccnc(N)n2)c2cc(C#CC(C)(O)c3nccs3)ccc12` (centres unmarked) [Example T1.1-125, 4-[1-(2-aminopyrimidin-4-yl)-3-methyl-indazol-6-yl]-2-thiazol-2-yl-but-3-yn-2-ol], the pKi was 9.00.

For `Cc1cc(C(C)(O)C#Cc2ccc3nc(OC4CCOCC4)n(-c4ccnc(N)n4)c3c2)no1` (centres unmarked) [Example T1.1-42, 4-[3-(2-aminopyrimidin-4-yl)-2-tetrahydropyran-4-yloxy-benzimidazol-5-yl]-2-(5-methylisoxazol-3-yl)but-3-yn-2-ol], the pKi was 8.52.
